{"source": "patent US20100150884A1", "about": "“Anticancer Agent to Be Combined with Telomelysin” (priority 2005, published 2010)", "key": {"[1]": {"tested_on": "various cancer cells cultured in vitro", "assay": "XTT assay, combined effect of Telomelysin and anticancer agent, cell strains not named individually", "format": "cell-based, human", "description": "(§1) Telomelysin was infected to the following various cancer cells cultured in vitro at the concentrations of 0 (Mock), 0.1 or 1 MOI (multiplicity of infection). The cells used were as follows.\n(§2) Specifically, 1×10^3 cells from each of the above cell strains were plated in a 96-well plate. After 24 hours, cells were counted and the virus was added to the culture broth at a concentration of 0.1 MOI or 1 MOI.\n(§3) On the next day, docetaxel was added to the virus-infected cell culture broth at various concentrations (control, 0.1 nM, 1.0 nM, 10.0 nM and 100.0 nM).\n(§4) On day 5 of infection, XTT assay was performed using a kit (Roche Diagnostics). Briefly, the culture broth was removed from the plate. A reaction solution containing XTT reagent was prepared and added to the plate. Cells were cultured for about 4 hours. Then, absorbance was measured with a microtiter plate (ELISA) reader, and the number of viable cells was calculated to thereby confirm antitumor effect.\nXTT assays were performed in the same manner as described above using microtubule inhibitor vinorelbine and topoisomerase I inhibitor SN-38 (CPT-11 metabolite) as anticancer agents combined with Telomelysin."}, "[2]": {"tested_on": "human lung cancer cell H1299 and human large bowel cancer cell SW620", "assay": "Quantitative real-time PCR of E1A gene, proliferation/replication of Telomelysin", "format": "cell-based", "conditions": "Telomelysin 0.1 MOI in combination with docetaxel versus alone", "description": "How the proliferation of Telomelysin would be affected when an anticancer agent acting on microtubule is combined with Telomelysin was analyzed by quantitative real-time PCR.\nHuman lung cancer cell H1299 and human large bowel cancer cell SW620 were infected with Telomelysin at 0.1 MOI for 2 hours. Two hours thereafter, docetaxel was administered. At 12, 24, 36, 48 and 60 hours after the infection, cells were harvested. DNA contained in the cells and in the supernatant was extracted separately. Real-time PCR was performed using primers targeting the E1A gene carried by Telomelysin, to thereby analyze viral proliferation/replication quantitatively. Specifically, 2 μl of DNA extract was added to 18 μl of PCR solution. PCR was performed using E1A primers under the following conditions.\nComposition of the PCR solution: • 1×LC FastStart DNA Master SYBR Green I • 3 mM MgCl2 • 0.5 μM each primer Reaction conditions: • 95° C., 10 min • (95° C., 10 sec; 60° C., 15 sec; 72° C., 8 sec)×40 cycles • 70° C., 15 sec • 40° C., 30 sec"}, "H1299 tumor tissue": {"tested_on": "H1299 tumor tissue", "assay": "HE staining of tumor tissue after intratumoral administration", "format": "in vivo, nude mice", "conditions": "Telomelysin in combination with docetaxel; six days after the final administration", "description": "(§5) H1299 was inoculated subcutaneously at the back of 5-week old nude mice. When the tumor reached 5-10 mm in size, Telomelysin was administered intratumorally. Six days after the final administration, tumor tissue and liver were stained with HE as described below. Briefly, tissue sections were prepared, deparaffinized and washed with water. Then, distilled water was fed to the tissue section. Hematoxylin solution was added thereto and left stationary for 20 minutes. Then, the section was rinsed with water lightly. The resultant section was fractionated with 1% hydrochloric acid/70% alcohol, followed by color development. Then, the tissue section was washed with water for 10 minutes, passed through 80% ethanol, and dipped in eosin solution for 10 minutes. Subsequently, the tissue section was washed with water lightly, dehydrated, cleared and mounted to thereby perform HE staining."}, "tumor cells": {"tested_on": "tumor cells", "assay": "Cell cycle analysis with PI (propidium iodide) using flow cytometry", "format": "cell-based", "conditions": "for sub G0/G1: after G2/M arrest; for cell cycle arrest: began 12 hours after administration", "description": "The influence of the substance having an antitumor effect and the recombinant virus used in combination in the pharmaceutical composition of the present invention upon the cell cycle of target cells may be examined, for example, by analyzing cell cycle with a nuclear dye PI (propidium iodide) using flow cytometry.\nAs a result of cell death, cell membranes become unable to retain their states and nuclei are readily stained with a nuclear dye such as PI mentioned above. Therefore, DNA content and cell cycle can be judged from the results of nuclear staining with PI. Here, it should be note that when ratios of S phase and G2/M phase in cell cycle are high in tumor cells, the malignancy is judged to be high.\nCell cycle was analyzed with PI (propidium iodide) using flow cytometry."}, "[3]": {"tested_on": "H1299 lung cancer cell tumor", "assay": "In vivo antitumor effect, H1299 subcutaneous tumor, tumor size", "design": "species or system nude mice", "conditions": "combination: Telomelysin intratumoral 1×10^7 pfu and docetaxel 12.5 mg/kg intraperitoneal, three times", "description": "H1299 was inoculated subcutaneously at the back of 5-week old nude mice. One, three and five days after the tumor reached 5-10 mm in size, Telomelysin was administered intratumorally at a dose of 1×10^7 pfu/50 μl/mouse and docetaxel was administered at a dose of 12.5 mg/kg intraperitoneally both three times in the total. As a control, PBS was administered intratumorally and intraperitoneally. Tumor size was measured in every three days."}, "HepG2 cells": {"tested_on": "HepG2 cells", "assay": "XTT assay, combined effect of Telomelysin and anticancer agent", "format": "cell-based, human", "conditions": "docetaxel combined with Telomelysin; day 5 of infection", "description": "as §1, §2, §3, §4"}, "H226Br cells": {"tested_on": "H226Br cells", "assay": "XTT assay, combined effect of Telomelysin and anticancer agent", "format": "cell-based, human", "description": "as §1, §2, §3, §4"}, "T.Tn cells": {"tested_on": "T.Tn cells", "assay": "XTT assay, combined effect of Telomelysin and anticancer agent", "format": "cell-based, human", "description": "as §1, §2, §3, §4"}, "LNCaP cells": {"tested_on": "LNCaP cells", "assay": "XTT assay, combined effect of Telomelysin and anticancer agent", "format": "cell-based, human", "conditions": "docetaxel combined with Telomelysin; day 5 of infection", "description": "as §1, §2, §3, §4"}, "H1299 cells": {"tested_on": "H1299 cells", "assay": "XTT assay, combined effect of Telomelysin and anticancer agent", "format": "cell-based, human", "conditions": "low concentrations of docetaxel combined with Telomelysin 0.1 MOI; day 5 of infection", "description": "as §1, §2, §3, §4"}, "liver": {"tested_on": "liver", "assay": "HE staining of liver after intratumoral administration", "format": "in vivo, nude mice", "conditions": "Telomelysin in combination with docetaxel; six days after the final administration", "description": "as §5"}, "[4]": {"conditions": "Telomelysin and docetaxel in combination"}, "[5]": {"conditions": "docetaxel combined with Telomelysin, day 5 of infection"}}}
{"smiles": "CCc1c2c(nc3ccc(O)cc13)-c1cc3c(c(=O)n1C2)COC(=O)[C@]3(O)CC", "note": "[SN-38]", "values": [{"measurement": "combined effect (antitumor effect, viable cells)", "setting": "[1]; SN-38 combined with Telomelysin, when the concentration of SN-38 was low", "value": "combined effect was observed"}, {"measurement": "sensitivity of cell strains to SN-38", "setting": "[1]; any of the cell strains tested", "value": "has sensitivity"}]}
{"smiles": "CC(=O)O[C@@]12CO[C@@H]1C[C@H](O)[C@@]1(C)C(=O)[C@H](O)C3=C(C)[C@@H](OC(=O)[C@H](O)[C@@H](NC(=O)OC(C)(C)C)c4ccccc4)C[C@@](O)([C@@H](OC(=O)c4ccccc4)[C@H]21)C3(C)C", "note": "[docetaxel]", "values": [{"measurement": "proliferation efficiency of Telomelysin diffused in supernatant (E1A DNA)", "setting": "[2]", "value": "equal proliferation efficiency"}, {"measurement": "hyaline degeneration of tumor cells", "setting": "H1299 tumor tissue", "value": "observed in a wide range"}, {"measurement": "apoptosis observed", "setting": "tumor cells; [4]", "value": "apoptosis (DNA fragmentation)"}, {"measurement": "sub G0/G1", "setting": "tumor cells; [4]", "value": "increased gradually"}, {"measurement": "cell cycle arrest", "setting": "tumor cells; [4]", "value": "G2/M arrest"}, {"measurement": "apoptosis observed", "setting": "tumor cells; docetaxel administered alone", "value": "apoptosis (DNA fragmentation)"}, {"measurement": "sub G0/G1", "setting": "tumor cells; docetaxel administered alone", "value": "increased gradually"}, {"measurement": "cell cycle arrest", "setting": "tumor cells; docetaxel administered alone", "value": "G2/M arrest"}, {"measurement": "antitumor effect (tumor size) compared to the control group and single use groups", "setting": "[3]", "value": "still more significant antitumor effect"}, {"measurement": "combined effect (antitumor effect, viable cells)", "setting": "HepG2 cells", "value": "evident combined effect was not observed"}, {"measurement": "combined effect (antitumor effect, viable cells)", "setting": "H226Br cells; [5]", "value": "evident combined effect was not observed"}, {"measurement": "sensitivity of cell strain to docetaxel", "setting": "H226Br cells; docetaxel itself", "value": "sensitivity to docetaxel itself"}, {"measurement": "combined effect (antitumor effect, viable cells)", "setting": "T.Tn cells; [5]", "value": "evident combined effect was not observed"}, {"measurement": "sensitivity of cell strain to docetaxel", "setting": "T.Tn cells; docetaxel itself", "value": "sensitivity to docetaxel itself"}, {"measurement": "combined effect (antitumor effect, viable cells)", "setting": "LNCaP cells", "value": "evident combined effect was not observed"}, {"measurement": "combined effect (antitumor effect, viable cells)", "setting": "H1299 cells", "value": "especially remarkable"}, {"measurement": "toxicity in liver tissue", "setting": "liver", "value": "Toxicity was not observed"}]}
{"smiles": "CCC1=C[C@@H]2CN(C1)Cc1c([nH]c3ccccc13)[C@@](C(=O)OC)(c1cc3c(cc1OC)N(C)[C@H]1[C@@](O)(C(=O)OC)[C@H](OC(C)=O)[C@]4(CC)C=CCN5CC[C@]31[C@@H]54)C2", "note": "[vinorelbine]", "values": [{"measurement": "combined effect (antitumor effect, viable cells)", "setting": "[1]; vinorelbine combined with Telomelysin", "value": "combined effect almost equal to that shown by docetaxel"}]}
